Test results: US4260805A, “1-Descarboxy-1-ketoester (ketoacid)-prostaglandins” (American Cyanamid Company, priority 1979, dated 1981)

System: bronchospasms elicited by intravenous injections of acetylcholine
Assay: Bronchodilator activity against bronchospasm elicited by acetylcholine, Konzett procedure
Type: in vivo, guinea pigs
Conditions: Cavia porcellus; spasmogen acetylcholine; three logarithmic cumulative intravenous doses; guinea pig
Experimental: The compounds of this invention are useful as bronchodilators for the treatment of asthma and chronic bronchitis. Bronchodilator activity is determined in guinea pigs against bronchospasms elicited by intravenous injections of 5-hydroxytryptamine, histamine or acetylcholine by the Konzett procedure. [See J. Lulling, P. Lievens, F. El Sayed and J. Prignot, Arzneimittel-Forschung, 18, 955 (1968).]
In Table which follows bronchodilator activity for representative compounds of this invention against one or more of three spasmogenic agents is expressed as an ED50 determined from the results obtained with three logarithmic cummulative intravenous doses. In this assay, these compounds of this invention provide an effect of longer duration than does natural 1-PGE1 or 1-PGE2.

Work on `CCCCCC(C)(O)/C=C/[C@H]1[C@H](O)CC(=O)[C@@H]1CCCCCCC(=O)C(=O)OCC` (relative stereo) [dl-1,9-dioxo-1-carbethoxy-11α,15-dihydroxy-15-methyl-13-trans-prostene] yielded an ED50 greater than 3.2 mg/kg.
